87 compounds from PubChem BioAssay AID2305 (GlaxoSmithKline (GSK), 2010) can be followed below.

Structures are written as SMILES.

For this test, the system named is P. falciparum 3D7 growth, pLDH absorbance. In words: P. falciparum 3D7 growth inhibition, dose response, strain 3D7 (AID 2305).

For `N=C(N)c1ccc(OCc2cccc(COc3ccc(C(=N)N)cc3I)c2)c(I)c1`, the IC50 was 0.34 µM.
Regarding `Cc1cccc(-c2nn(-c3ccccc3)c3[nH]c(=O)c(CNC4CCCC4)cc23)c1`, the IC50 worked out at 0.76 µM.
`Cc1cc(NN=Cc2ccccc2F)c2cc(C(F)(F)F)ccc2n1` displayed a 50% inhibitory concentration (IC50) of 0.43 µM.
On to `Cc1cccc2[nH]c(-c3ccc(-c4cccc(CN5CCCC5CN)c4)cc3)nc12` (configuration not stated), for which the concentration for half-maximal inhibition (IC50) turned out to be 0.91 µM.
`Cc1ccc(NC(=O)c2ccc(CN3CCCN(CC4CCCCC4)CC3)cc2)cc1F` returned a half-inhibitory concentration (IC50) of 0.29 µM.
Consider `COc1cc(Cc2cnc(N)nc2N)cc(OCCCC#N)c1OC`, for which the IC50 is 1.03 µM.
For `CC(=O)N(Cc1ccccc1-c1cccc(CNCc2ccc3c(c2)OCO3)c1)C1CCN(Cc2ccccc2)CC1` the value was 1.05 µM.
Compound `CN1CCOc2ccc(Nc3nnc(-c4cccc(-c5cccnc5)c4)o3)cc2C1` had an IC50 of 0.1 µM.
For `CCCC1N=C(N)N=C(N)N1c1ccc(C)c(C)c1` (configuration not stated) the value was 0.07 µM; for `CCN(CC)CCN(Cc1ccc(-c2ccc(C(F)(F)F)cc2)cc1)C(=O)c1c[nH]c2ccc(Br)cc12`, 0.95 µM.
In the case of `Cn1cccc1C(=O)NCC(CCNc1cc(=O)c2ccccc2[nH]1)NCc1cc(Br)cc(Br)c1` (configuration not stated), the IC50 was 0.91 µM.
`CO/C=C(/C(=O)OC)c1ccccc1Oc1cc(Oc2ccccc2C#N)ncn1` came in with an IC50 of 0.04 µM.
Take `Cc1cc(CNCCCCCCCNCc2cccc([N+](=O)[O-])c2)ccc1O`: the IC50 amounted to 0.64 µM.
As for `Fc1cccc2sc(Nc3nc(-c4ccccn4)cs3)nc12`, the half-maximal inhibitory concentration (IC50) is 0.91 µM.
`CN1CCc2cc(O)c(NS(=O)(=O)c3ccc(-c4ccc(Cl)cc4)cc3)cc2CC1`: the 50% inhibitory concentration (IC50) stood at 0.77 µM.
As for `CCc1ccc(CC(C)NCC(O)c2ccccc2)cc1` (configuration not stated), the IC50 was found to be 0.89 µM.
Consider `c1ccc2c(C3CCN(CCCCOc4ccc5c(c4)CCN(C4CCC4)CC5)CC3)c[nH]c2c1`, for which the concentration for half-maximal inhibition (IC50) amounted to 0.71 µM.
To `CCCc1cc(=O)[nH]c(-n2nc(C)cc2NC(=O)c2cc3ccccc3o2)n1` belongs 1.11 µM; to `COc1cc(NC(=O)CCCCCCCN2CCN(C)CC2)c2ncccc2c1`, 0.61 µM.
To `CN(CCN(C)C(=O)NCc1ccccc1)C(=O)NCc1ccccc1` belongs 0.93 µM; to `CCOc1cc(C(=O)N[C@@H](Cc2ccccc2)[C@H](O)CNCc2cccc(OC)c2)cc(N2CCCCS2(=O)=O)c1`, 0.72 µM; to `COc1cc(NC2=C(c3ccccc3)C(=O)c3ccccc32)ccn1`, 0.36 µM.
For `CC(NC(=O)c1ccc(O)c(-c2ccc(Cl)c(Cl)c2)c1)C(=O)NCCN1CCCCC1` (configuration not stated) the value was 0.87 µM.
Turning to `O=C(N[C@H]1CCN(Cc2ccc(OCCN3CCNCC3)c(Cl)c2)C1)c1ccc(Cl)c(Cl)c1`, the half-maximal inhibitory concentration (IC50) was determined as 1.06 µM.
Consider `CCc1c(CCNCCCCCCNCCc2ccc(Br)cc2)ccc(O)c1O`, for which the IC50 was 0.9 µM.
In turn, `O=C(Nc1cccc(-c2ccc(NCCCN3CCCC3)nc2)c1)c1ccccc1` came in with an IC50 of 0.87 µM.
In the case of `C#CCCC(=O)Nc1cccc(-c2cccc(-c3nc4ccc(C(F)(F)F)cc4[nH]3)c2)c1`, the IC50 was found to be 0.81 µM.
Compound `COc1cc(CCNc2nc(NCc3cccc4ccccc34)nc(N3CCC(N)CC3)n2)ccc1O` came in with an IC50 of 0.79 µM.
As for `CCN(CC(C)O)C(=O)c1ccc(-c2ccc(-c3nc4c(C)cccc4[nH]3)cc2)cc1` (configuration not stated), the IC50 came out at 0.84 µM.
For `Cc1ccc(CN2CCC(C(=O)Nc3ccc(-c4cc5ccccc5[nH]4)cc3)CC2)o1` the value was 1.42 µM.
`Cc1[nH]c(C)c(-c2ccc(OCCCc3ccccn3)cc2)c(=O)c1Br` showed a concentration for half-maximal inhibition (IC50) of 0.21 µM.
Turning to `NCC(=O)NC12CC3CC(CC(C3)C1)C2`, the 50% inhibitory concentration (IC50) is 1.2 µM.
For `Cc1cccc2[nH]c(-c3ccc(-c4ccc(CNCCN5CCNCC5)cc4)s3)nc12`, the IC50 was 1.15 µM.
`CCOc1cc(C)c(C2CCN(CCCCNC(=O)c3ccc(NC(=O)c4ccc(Cl)cc4)cc3)CC2)cc1C` yielded a concentration for half-maximal inhibition (IC50) of 0.74 µM.
`COCCN1CCN(Cc2ccc(-c3ccc(-c4nc5ccc(F)cc5[nH]4)cc3)cc2)CC1`: the IC50 came to 0.72 µM.
In turn, `CN(C(=O)OCc1ccccc1)C1CCC(CCN2CCC3(CC2)C(=O)NCN3c2cccc(C(F)(F)F)c2)(c2ccccc2)CC1` (configuration not stated) came in with an IC50 of 1.18 µM.
For `O=C(NC(=O)c1ccccc1)NC1CCN(c2ccnc3cc(Cl)ccc23)C1` (configuration not stated) the value was 0.58 µM; for `CS(=O)(=O)c1ccc(CNCc2cccc(-c3cccc(-c4nc5ccccc5[nH]4)c3)c2)cc1`, 0.59 µM.
For the compound `O=C(O)Cc1ccc(-c2c[nH]c3ncc(-c4cccc5ncccc45)cc23)cc1`, the IC50 was determined as 0.85 µM.
`Cn1cncc1C(=O)Nc1cccc(-c2csc(-c3nc4ccccc4[nH]3)c2)c1` returned an IC50 of 0.45 µM.
On to `NC(=O)c1cccc(Nc2nccc(Nc3ccc(Oc4ccc5ccccc5c4)cc3)n2)c1`, for which the IC50 stood at 0.81 µM.
Consider `CCN(CC)CCN(Cc1ccc(-c2ccc(Cl)cc2)cc1)C(=O)Cn1cc(CN(C)C)c(=O)nc1SCc1ccc(F)cc1`, for which the IC50 came out at 0.75 µM.
To `Cc1cc(NC2CCCC2)nc(Nc2ccc(F)cc2)n1` belongs 0.47 µM.
With `CCNc1cc(C(=O)N[C@@H](Cc2ccccc2)[C@H](O)CN[C@@H]2CCc3ccccc32)cc(N2CCCC2=O)c1`, the 50% inhibitory concentration (IC50) is 1.02 µM.
`C[C@@H]1CCC[C@H](C)N1C[C@@H](O)CNS(=O)(=O)c1cccc(C(F)(F)F)c1`: the 50% inhibitory concentration (IC50) came to 0.69 µM.
The compound `Cc1nc(-c2cccc(NC(C)C(=O)Nc3cc(C(F)(F)F)ccc3N3CCOCC3)c2)cs1` (configuration not stated) yielded an IC50 of 0.24 µM.
Compound `NC(=O)c1c(Cl)nc2ccccc2c1Cl` gave an IC50 of 0.96 µM.
The compound `CC(=O)Nc1ccc(C(=O)Nc2cccc(-c3ccc(-c4nc5ccc(F)cc5[nH]4)s3)c2)cn1` came in with an IC50 of 0.23 µM.
Consider `O=C(Nc1ccc(F)cc1)c1cnc(N2CCN(c3ccncc3)CC2)c(Cl)c1`, for which the IC50 stood at 0.74 µM.
Turning to `CC(=O)C1(c2ccccc2)CCN(CCC(NC(=O)c2cc(C(F)(F)F)cc(C(F)(F)F)c2)c2ccc(Cl)c(Cl)c2)CC1` (configuration not stated), the 50% inhibitory concentration (IC50) was determined as 1.19 µM.
Consider `CNCc1ccc(CN(C)c2nc(N)c3cc(OC)c(OC)cc3n2)cc1`, for which the concentration for half-maximal inhibition (IC50) worked out at 1.03 µM.
`Cc1c2ccncc2c(C)c2c1[nH]c1ccccc12` had a concentration for half-maximal inhibition (IC50) of 0.8 µM.
`O=C(Nc1cccc(-c2cccc(-c3nc4ccccc4[nH]3)c2)c1)c1ccncc1` returned a half-inhibitory concentration (IC50) of 0.48 µM.
As to `Oc1ccc2ccccc2c1C=NNc1nc(Nc2ccccc2)nc(Nc2ccccc2)n1`, the half-inhibitory concentration (IC50) worked out at 0.67 µM.
`N#Cc1cncc(-c2nc3c(N4CCN(c5cnccn5)CC4)cccc3n2CCNCc2ccccc2)c1` had a concentration for half-maximal inhibition (IC50) of 0.91 µM.
For `O=C(NCCCCN1CCC(c2ccc3c(c2OCCN2CCCC2=O)CCCC3)CC1)c1ccc(-c2ccc(C(F)(F)F)cc2)cc1` the value was 1.52 µM.
To `CCOC(=O)c1ccc(NC(=O)N[C@H]2CCN(CCCCCNC(=O)/C=C/c3ccc(Cl)c(Cl)c3)C2)cc1` belongs 0.74 µM.
`CCCCc1cc(NCC)nc(Nc2ccc(F)cc2)n1` returned a 50% inhibitory concentration (IC50) of 0.79 µM.
The compound `COc1ccccc1CCNc1nc(C)cc(N[C@@H](CC(C)C)C(=O)NCCc2ccccc2)n1` registered a half-inhibitory concentration (IC50) of 0.72 µM.
As for `O=[N+]([O-])c1ccc(NC(=NCCOc2ccccc2)Nc2ccccc2Br)c(O)c1`, the IC50 came out at 1.05 µM.
The compound `O=C1OC2(CN1CC1CCN(Cc3ccc(O)cc3Cl)C1)c1ccccc1-c1ccccc12` (configuration not stated) returned an IC50 of 1.17 µM.
With `CN(C)CC(=O)Nc1cccc(Nc2nccc(NCC(O)c3ccccc3)n2)c1` (configuration not stated), the IC50 stood at 0.98 µM.
The compound `O=C(NCCc1cccc(Cl)c1Cl)c1cnc(N2CCN(c3ccncc3)CC2)c(Cl)c1` had an IC50 of 0.7 µM.
Turning to `OC1CCCN(Cc2ccc(-c3cccc(-c4nc5ccc(F)cc5[nH]4)c3)cc2)C1` (configuration not stated), the concentration for half-maximal inhibition (IC50) stood at 0.87 µM.
Turning to `NC1CCN(Cc2cccc(-c3ccc(-c4nc5ccc(F)cc5[nH]4)cc3)c2)C1` (configuration not stated), the concentration for half-maximal inhibition (IC50) turned out to be 0.6 µM.
Consider `COc1ccc2nccc([C@@H](O)CN3CCC(NCCNc4cccc(F)c4)CC3)c2c1`, for which the IC50 came out at 0.18 µM.
To `CCCC(C)NC(=O)[C@H](CC1CCCCC1)NC(=O)c1ccc(O)c(-c2cccc(C(F)(F)F)c2)c1` (some centres not stated) belongs 0.53 µM.
`CCN(CC)CCN(Cc1ccc(-c2ccc(C(F)(F)F)cc2)cc1)C(=O)Cn1c(CCc2ccc(F)c(F)c2)cc(=O)c2ccccc21` registered an IC50 of 0.89 µM.
To `CN1CCC(C(=O)Nc2cccc(-c3ccc(-c4nc5ccc(F)cc5[nH]4)cc3)c2)CC1` belongs 0.71 µM.
For `Cc1ccc(CNC(=O)[C@H](Cc2ccccc2)Nc2cc(C)nc(NCc3ccccc3C)n2)cc1` the value was 0.8 µM; for `C(=C(c1cccs1)c1cccs1)c1ccc(CNC2CCN(Cc3ccccc3)CC2)cc1`, 0.16 µM; for `CCCCc1ccc(C(=O)Nc2ccc3nc(N4CCN(C)CC4)cc(C)c3c2)cc1`, 1.1 µM.
On to `CC(C)Nc1cc(C(=O)N[C@@H](Cc2ccccc2)[C@H](O)CNCc2cccc(C(F)(F)F)c2)c(F)c(N2CCCCS2(=O)=O)c1`, for which the half-inhibitory concentration (IC50) turned out to be 0.79 µM.
Regarding `Cc1ccccc1CNc1ccc2nc(N)nc(N)c2c1`, the IC50 came to 0.17 µM.
In turn, `CC(C)(C)c1ccc(NC(=O)c2cccc(CN3CCCN(CC4CCCCC4)CC3)c2)cc1` registered a 50% inhibitory concentration (IC50) of 0.74 µM.
`COc1ccc2nccc([C@@H](O)CN3CCC(NCC(O)Cc4ccccc4)CC3)c2c1` (some centres not stated) registered an IC50 of 0.67 µM.
For `COc1cc2c(cc1CCNCCCCNCCc1cc3c(cc1OC)CCCC3)CCCC2` the value was 1 µM; for `CC[C@H](C)CNC(=O)c1ccnc(-c2cccc(CN(C)C3CCN(C)CC3)c2)c1`, 0.9 µM.
`Cc1cc(OCCCN2CCC(NS(=O)(=O)c3cccc(Br)c3)CC2)c2ccccc2n1` had an IC50 of 1.11 µM.
To `Clc1cccc(C23N=C(Nc4nc5ccccc5[nH]4)NC2(c2ccccc2)NC(Nc2nc4ccccc4[nH]2)=N3)c1` (configuration not stated) belongs 0.52 µM; to `O=C(Nc1cccc(-c2cccc(-c3nc4ccc(C(F)(F)F)cc4[nH]3)c2)c1)c1ccncc1`, 0.2 µM.
Consider `CS(=O)(=O)CCNCc1nc(-c2ccc3ncnc(Nc4ccc(OCc5cccc(F)c5)c(Cl)c4)c3c2)cs1`, for which the 50% inhibitory concentration (IC50) was 0.77 µM.
With `COc1ccc(CCNCCCCCCNCCc2ccc(-c3ccccc3)cc2)cc1OC`, the IC50 was found to be 0.96 µM.
In turn, `COc1cccc(CN2CCC(CCOC(c3ccccc3)c3ccc(Cl)cc3)CC2)c1O` (configuration not stated) returned an IC50 of 0.71 µM.
On to `O=C(NC(CCCN1CCC2(CC1)OCc1ccccc12)c1ccc(Cl)c(Cl)c1)c1cc(C(F)(F)F)cc(C(F)(F)F)c1` (configuration not stated), for which the IC50 came to 0.54 µM.
`Nc1c(Cl)cc(C(O)CNCCCCCCOCCC=C2CCOCC2)cc1Cl` (configuration not stated) returned an IC50 of 0.63 µM.
As for `O=C(Nc1cccc(C(F)(F)F)c1)c1cccc(S(=O)(=O)NC2CCCN(CC3CCCCC3)C2)c1` (configuration not stated), the IC50 was 0.86 µM.
